What was measured:
lung protein alterations = test: Acute formalin exposure lung injury model, lung protein analysis by two-dimensional gel electrophoresis; format: in vivo, Fischer 344 rats
Experimental: In a third system, we sought to determine if Sar^9, Met (O2)^11-substance P-treated Fischer 344 rats who were exposed to 67 mg/m^3 […] aerosolize formalin for 1.5 minutes would attenuate lung protein alterations. At approximately 42 minutes post-formalin or air exposure, rat lungs were removed for protein analysis. […] Among these 71 proteins were fibrinogen-related proteins.

[1] = tested on: A/Hong Kong 8/68 influenza virus; set-up: species or system C57BL/6 mice; details: mouse, in vivo
Hepatitis C virus = details: substance P aerosol combined with standard drug treatment of ribavirin and interferon alpha

Sar^9, Met (O2)^11-substance P
number of lung proteins whose formalin-mediated abundance changes were attenuated (lung protein alterations; 67 mg/m^3 aerosolized formalin for 1.5 minutes, lungs removed about 42 minutes post-exposure, includes fibrinogen-related proteins): 71 proteins
lung fibrinogen concentrations after acute formalin exposure (proteomic analyses) (lung protein alterations; acute lung injury model): preserve fibrinogen concentrations
development of influenza symptoms (decreased body mass, fever, dehydration, nasal discharge) [1]: did not develop influenza symptoms
leukotriene B4 levels relative to A/Hong Kong 8/68 virus only mice [1]: 33%
lung cell counts after broncho-alveolar lavage [1]: normal lung cell counts
signs of lung injury (electron micrographs) [1]: did not observe any signs of lung injury

CSCC[C@H](NC(=O)[C@H](CC(C)C)NC(=O)CNC(=O)[C@H](Cc1ccccc1)NC(=O)[C@H](Cc1ccccc1)NC(=O)[C@H](CCC(N)=O)NC(=O)[C@H](CCC(N)=O)NC(=O)[C@@H]1CCCN1C(=O)[C@H](CCCCN)NC(=O)[C@@H]1CCCN1C(=O)[C@@H](N)CCCN=C(N)N)C(N)=O [substance P]
deleterious effects of ribavirin and interferon alpha (loss of appetite, nausea, vomiting, weight loss) (Hepatitis C virus): eliminated
